Test results as given in US8841257B2, “Inhibitors of STAT3 and uses thereof” (Board of Regents, The University of Texas System, priority 2009, dated 2014).

What was measured:
STAT3 = STAT3 (Homo sapiens, UniProt P40763); experiment: Inhibition of STAT3 phosphorylation in BT20 breast tumor cells (western blot); type: cell-based; parameters: endogenous in cells; host or cells: BT20 breast tumor cells
Experimental: Inhibition of STAT3 in BT20 Breast Tumor Cells. General procedure: 35 mm petri dishes were plated with 300,000 BT20 cells in 2 mL RPMI1640 media containing 10% FBS, […], streptomycin, and glutamine. Prodrugs were dissolved in DMSO and were added to the cells with fresh media at varying concentrations. After 2 h the cells were washed with ice cold phosphate buffered saline. Washed cells were treated with lysis buffer (50 mM Hepes, pH 7.4, 150 mM NaCl, 1.5 mM MgCl2, 1 mM EGTA, 100 mM NaF, 10 mM sodium pyrophosphate, 10% glycerol, 1% Triton X-100, 1 mM PMSF, 1 mM Na3VO4, 10 μg/mL leupeptin and 10 μg/mL aprotinin). Cell-free detergent extracts were centrifuged at 15,000 rpm in a microcentriguge for 30 min at 4° C. and the protein concentrations of the supernatants determined. Aliquots containing 12 μg of protein were separated on 8% SDS-PAGE and were transferred to PVDF filters. The filters were blocked with 5% bovine serum albumin and were probed with pStat3^Y705 antibody followed by secondary antibody, whose signal was detected with an enhanced chemiluminescence kit (ECL, Amersham, Chicago, Ill.). Filters were stripped with stripping buffer (62.5 mM Tris, pH 6.8, 2% SDS, and 0.1 M 2-mercaptoethanol) at 50° C. for 30 min. Filters were then probed with total Stat3 antibody and visualized with chemiluminescence as above.
Because DMSO is toxic, other formulations were evaluated for potential use in animal models. The compound of Example 1 was dissolved in EtOH, 20% (w/v) Trappsol (hydroxypropyl β-cyclodextran, pharmaceutical grade), or a liposomal formulation to a concentration of 5 mM. These formulations were given to cells at 0.1, 0.5, and 5 μM concentrations. At two hours, cells were lysed and pSTAT3 levels were determined by Western Blot (FIG. 3). Different formulations have little effect on inhibition of STAT3. The compound of Example 1 was dissolved in DMSO, EtOH, Trappsol, or as a 10 mol % mixture in dimyristoylphosphatidyl choline and applied to BT20 cell in culture. After two hours, cells were lysed and pSTAT3 levels determined by Western blot. To prepare liposomes a solution of 1.0 mg of the compound of Example 1, 7.2 mg of DMPC, 0.41 mg of Tween 20 in 1.0 mL of tert-butanol was lyophilized. A control lipid formulation of 7.2 mg of DMPC and 0.41 mg of Tween 20 in 1.0 mL of tert-butanol was lyophilized. These samples were mixed with 236 μL of H2O and were vortexed and sonicated for 5 min.
The compounds are selective for STAT3 over STAT1 in BT20 breast tumor cells. BT20 cells prepared as above and were treated with 5 μM of the compound of Example 1 for two hours then were treated with 25 ng/mL of interferon γ (IFNγ). […] (FIG. 4, bottom panel).
Time course of inhibition of STAT3 phosphorylation in BT20 cells. BT20 cells were plated as above and treated with the compounds from Examples 1 and 6 and western blots were performed at varying time intervals.

[1] = tested on: MDA-MB-231 and SUM149 cells; experiment: Vasculogenic mimicry exhibited by breast cancer cells; type: cell-based; conditions: 5 μM in DMSO; 24 hours
Experimental: Cells were treated with 5 μM of the compounds from examples 1 and 8 formulated in DMSO or with DMSO alone as a control. To highlight the matrix-associated vascular channels that were formed, cells were stained with periodic acid-Schiff (PAS) reagent. Representative photographs were taken at 24 hours at —10 magnification. Each experiment was repeated 3 times.

normal cells = experiment: Effect on normal cells in the cell growth assay; type: cell-based
Experimental: Lung Tumor Cell Viability Assay: H1819, H1299 and H827 lung tumor cells were seeded in 6-well plates at a density of 6×10^4, 4×10^4 and 5×10^4 cells/well, respectively. Prodrugs were dissolved in DMSO to make a stock concentration of 500 μM. The following day the cells were treated either with DMSO alone or with 0.25 μM, 0.5 μM, 1.0 μM, 2.5 μM and 5.0 μM of the compounds from Example 1, Example 16, and Example 22. Seventy two h after treatment with the drug the cells were subjected to cell viability assay using trypan blue. […] Cells were plated and after 24 hr were treated with the compound of Example 16 in DMSO. After 72 hr, cells were counted. Note that vertical axes are different for each plot.

[2] = tested on: MDA-MB-468 breast cancer cells; experiment: Inhibition of growth of MDA-MB-468 breast cancer cells (MTT); type: cell-based, human; conditions: 72 hr
Experimental: MDA MB 468 cells were plated at 1500 cells/well DMEM with high glucose 10% FBS. Cells were plated into 96 well plates (1500 cells per well) in. After 24 h the media was changed and cells were treated with DMSO or increasing amounts of the compound of Example 1 in DMSO. All wells had equal concentrations of DMSO. At 72 hr viability was measured with the MTT assay. […] In the mixtures of compounds of Examples 16, 22, 1 and 8. the total concentration of the drug is as listed on the X-axis. However, the mixtures are equimolar amounts of both drugs. For example, 5 μM of the drug is actually 2.5 μM of the compound of Example 16 and 2.5 μM the compound of Example 22. The same is true for the mixture of compounds Example 1 and Example 8.

HUVEC cells = experiment: Inhibition of tube formation in HUVEC cells; type: cell-based; conditions: overnight; 0.01-5.0 μM tested
Experimental: Inhibition of tube formation in HUVEC cells. […] Briefly, 1×10^4 HUV endothelial cells were seeded on the surface of the polymerized EC matrix gel per well, treated with either DMSO or 0.01 μM, 0.1 μM, 0.2 μM, 0.5 μM, 1.0 μM, 2.0 μM, and 5.0 μM of the compound from Example 1 and the compound from Example 16. The cells were incubated overnight at 37° C. The next day the tubes were observed and the images were captured using a Nikon phase contrast inverted microscope.

Sequence of STAT3 (P40763 whole entry): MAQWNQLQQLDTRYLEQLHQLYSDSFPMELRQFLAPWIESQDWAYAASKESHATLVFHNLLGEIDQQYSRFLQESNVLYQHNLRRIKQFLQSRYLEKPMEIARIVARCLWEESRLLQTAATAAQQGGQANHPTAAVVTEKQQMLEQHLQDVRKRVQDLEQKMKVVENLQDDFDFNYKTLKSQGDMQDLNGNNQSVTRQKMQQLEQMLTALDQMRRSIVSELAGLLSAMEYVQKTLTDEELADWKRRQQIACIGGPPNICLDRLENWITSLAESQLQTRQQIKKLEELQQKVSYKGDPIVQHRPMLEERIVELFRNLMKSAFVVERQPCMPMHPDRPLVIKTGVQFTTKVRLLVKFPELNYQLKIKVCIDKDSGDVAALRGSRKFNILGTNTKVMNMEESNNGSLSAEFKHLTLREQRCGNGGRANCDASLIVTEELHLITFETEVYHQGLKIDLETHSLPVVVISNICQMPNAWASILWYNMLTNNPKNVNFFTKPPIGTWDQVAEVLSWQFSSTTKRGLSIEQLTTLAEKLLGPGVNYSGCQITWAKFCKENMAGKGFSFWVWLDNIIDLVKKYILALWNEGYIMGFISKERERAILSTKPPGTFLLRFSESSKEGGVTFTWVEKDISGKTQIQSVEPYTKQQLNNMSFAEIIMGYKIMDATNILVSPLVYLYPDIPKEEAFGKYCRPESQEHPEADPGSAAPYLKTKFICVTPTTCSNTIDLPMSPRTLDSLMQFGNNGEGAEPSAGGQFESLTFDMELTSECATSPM

Row | SMILES | increase in pSTAT3 formation on EGF stimulation (STAT3; 5 μM, 2 h, then EGF 50 ng/mL, BT20) | phosphorylation of STAT3 at the indicated time points (STAT3; 5 μM, BT-20 cells) | selectivity for STAT3 over STAT1 and AKT (STAT3; BT20 cells) | pSTAT3 inhibition compared with DMSO sample (STAT3; dissolved in EtOH, 0.1 μM, 2 h, BT20) | pSTAT3 inhibition compared with DMSO sample (STAT3; dissolved in EtOH, 0.5 and 5 μM, 2 h, BT20) | pSTAT3 inhibition compared with DMSO sample (STAT3; in 20% Trappsol HPB, 0.1 μM, 2 h, BT20) | pSTAT3 inhibition compared with DMSO sample (STAT3; in 20% Trappsol HPB, 0.5 and 5 μM, 2 h, BT20) | pSTAT3 inhibition compared with DMSO sample (STAT3; liposomal preparation (DMPC/Tween 20), 2 h, BT20) | vasculogenic mimicry [1] | effect on normal cells compared to vehicle DMSO (normal cells) | potency in MTT viability assay relative to Example 1 [2] | concentration at which significant reduction in tube formation was observed (HUVEC cells) [µM]
1 | C/C(=C\C(=O)N[C@H]1CCc2cccc3c2N(C1=O)[C@H](C(=O)N[C@H](C)CCC(N)=O)C3)c1ccc(C(F)(F)P(=O)(OCOC(=O)C(C)(C)C)OCOC(=O)C(C)(C)C)cc1 [Example 1, (2E)-3-[4-[[bis[(2,2-dimethyl-1-oxopropoxy)methoxy]phosphinyl]difluoromethyl]phenyl]-but-2-enoyl-Haic-(R)-4-aminopentamide] | inhibited the increase in pSTAT3 formation | inhibit the phosphorylation of STAT3 | selective for STAT3 over STAT1 and AKT | did not inhibit as much as did the DMSO sample | comparable | did not inhibit as much as did the DMSO sample | comparable | inhibition comparable to DMSO | Significant reduction |  |  | 
2 | CCCC[C@H](NC(=O)/C=C(\C)c1ccc(C(F)(F)P(=O)(OCOC(=O)C(C)(C)C)OCOC(=O)C(C)(C)C)cc1)C(=O)N1C[C@H]2CC2[C@H]1C(=O)N[C@@H](CCC(N)=O)[C@@H](C)OCc1ccccc1 (stereo partly drawn) [Example 16, (2E)-3-[4-[[bis[(2,2-dimethyl-1-oxopropoxy)methoxy]phosphinyl]difluoromethyl]phenyl]-but-2-enoyl-norleucinyl-(2S,3R,4S)-methanoprolinyl-(4S,5R)-4-amino-5-benzyloxyhexamide] |  |  |  |  |  |  |  |  |  | negligible effects | somewhat more potent | 2
